Target: recombinant human His-ATG7 enzyme (Homo sapiens (Human), UniProt O95352)
Experiment: ATG7 Enzyme Assay (HTRF/FRET, ATG3-GST and Flag-Gabarap)
Assay type: biochemical
Conditions: for inhibition at 0.123 µM: Concentration 0.123 μM; for inhibition at 0.123 µM / inhibition at 0.111 µM: read-out: Percent Inhibition; for inhibition at 0.111 µM: Concentration 0.111 μM
In short: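 HTRF read-out after 2 h at 24° C, using Eu-cryptate anti-Flag and XL-APC anti-GST antibodies in an EDTA stop buffer. The preceding 105 min, 24° C reaction (pH 7.5) held 10 μM ATP, 5 nM each ATG3-GST and Flag-Gabarap, and 0.15 nM human His-ATG7. Values are IC50 or percent inhibition at one concentration.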

recombinant human His-ATG7 enzyme, sequence (O95352 whole entry): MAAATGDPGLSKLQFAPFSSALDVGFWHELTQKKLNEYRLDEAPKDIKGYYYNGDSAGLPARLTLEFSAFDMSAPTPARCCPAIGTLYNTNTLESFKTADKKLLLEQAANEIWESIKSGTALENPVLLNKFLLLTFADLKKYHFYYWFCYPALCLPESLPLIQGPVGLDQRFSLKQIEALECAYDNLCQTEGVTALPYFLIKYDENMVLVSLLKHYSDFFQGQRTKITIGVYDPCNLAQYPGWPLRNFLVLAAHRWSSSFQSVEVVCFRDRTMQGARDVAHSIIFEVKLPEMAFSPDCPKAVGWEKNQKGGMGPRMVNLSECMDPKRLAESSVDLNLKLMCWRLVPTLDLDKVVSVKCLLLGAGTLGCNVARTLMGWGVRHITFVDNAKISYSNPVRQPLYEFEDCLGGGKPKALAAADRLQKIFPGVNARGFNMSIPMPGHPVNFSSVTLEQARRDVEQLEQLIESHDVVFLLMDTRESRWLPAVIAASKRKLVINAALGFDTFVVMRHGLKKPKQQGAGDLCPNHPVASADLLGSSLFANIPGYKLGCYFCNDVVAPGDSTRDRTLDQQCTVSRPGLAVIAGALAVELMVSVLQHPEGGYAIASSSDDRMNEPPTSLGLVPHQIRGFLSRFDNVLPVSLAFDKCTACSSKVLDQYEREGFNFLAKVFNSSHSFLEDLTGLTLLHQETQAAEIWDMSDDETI

Row | SMILES | IC50 [nM] | inhibition at 0.123 µM [%] | inhibition at 0.111 µM [%]
1 | Nc1ncnc2c1c(SCCc1ccccc1)nn2[C@@H]1O[C@H](COS(N)(=O)=O)[C@@H](O)[C@H]1O [Compound I-88, [(2R,3S,4R,5R)-5-{4-amino-3-[(2-phenylethyl)sulfanyl]-1H-pyrazolo[3,4-d]pyrimidin-1-yl}-3,4-dihydroxytetrahydrofuran-2-yl]methyl sulfamate] | 20 to 50 | 78 | 
2 | Cc1ccc(Sc2nn([C@@H]3O[C@H](COS(N)(=O)=O)[C@@H](O)[C@H]3O)c3ncnc(N)c23)cc1 [Compound I-89, [(2R,3S,4R,5R)-5-{4-amino-3-[(4-methylphenyl)sulfanyl]-1H-pyrazolo[3,4-d]pyrimidin-1-yl}-3,4-dihydroxytetrahydrofuran-2-yl]methyl sulfamate] | < 20 |  | 86
3 | N#CCSc1nn([C@@H]2O[C@H](COS(N)(=O)=O)[C@@H](O)[C@H]2O)c2ncnc(N)c12 [Compound I-90, [(2R,3S,4R,5R)-5-{4-amino-3-[(cyanomethyl)sulfanyl]-1H-pyrazolo[3,4-d]pyrimidin-1-yl}-3,4-dihydroxytetrahydrofuran-2-yl]methyl sulfamate] | 20 to 50 | 84 | 
4 | Nc1ncnc2c1c(SCC1=CCCCC1)nn2[C@@H]1O[C@H](COS(N)(=O)=O)[C@@H](O)[C@H]1O [Compound I-91, [(2R,3S,4R,5R)-5-{4-amino-3-[(cyclohex-1-en-1-ylmethyl)sulfanyl]-1H-pyrazolo[3,4-d]pyrimidin-1-yl}-3,4-dihydroxytetrahydrofuran-2-yl]methyl Sulfamate] | 20 to 50 | 76 | 
5 | CC1OCCC1Sc1nn([C@@H]2O[C@H](COS(N)(=O)=O)[C@@H](O)[C@H]2O)c2ncnc(N)c12 (some centres unmarked) [Compound I-92] | 100 to 500 | 50 | 
6 | CSCc1nn([C@@H]2O[C@H](COS(N)(=O)=O)[C@@H](O)[C@H]2O)c2ncnc(N)c12 [Compound I-93, [(2R,3S,4R,5R)-5-{4-amino-3-[(methylsulfanyl)methyl]-1H-pyrazolo[3,4-d]pyrimidin-1-yl}-3,4-dihydroxytetrahydrofuran-2-yl]methyl Sulfamate] | 100 to 500 | 47 | 
7 | CSc1nn([C@@H]2O[C@@H](COS(N)(=O)=O)[C@@H](O)[C@H]2O)c2ncnc(N)c12 [Compound I-94, {(2S,3S,4R,5R)-5-[4-amino-3-(methylsulfanyl)-1H-pyrazolo[3,4-d]pyrimidin-1-yl]-3,4-dihydroxytetrahydrofuran-2-yl}methyl Sulfamate] | 100 to 500 |  | 28
8 | CC(C)Sc1nn([C@@H]2O[C@@H](COS(N)(=O)=O)[C@@H](O)[C@H]2O)c2ncnc(N)c12 [Compound I-95, {(2S,3S,4R,5R)-5-[4-amino-3-(isopropylsulfanyl)-1H-pyrazolo[3,4-d]pyrimidin-1-yl]-3,4-dihydroxytetrahydrofuran-2-yl}methyl Sulfamate] | 100 to 500 | 47 | 
9 | CSc1nn([C@@H]2O[C@@H](COS(N)(=O)=O)[C@@H](O)[C@@H]2F)c2ncnc(N)c12 [Compound I-96, {(2S,3R,4S,5R)-5-[4-amino-3-(methylsulfanyl)-1H-pyrazolo[3,4-d]pyrimidin-1-yl]-4-fluoro-3-hydroxytetrahydrofuran-2-yl}methyl Sulfamate] | 100 to 500 |  | 44
10 | Nc1ncnc2c1c(SCC1CC(F)(F)C1)nn2[C@@H]1O[C@H](COS(N)(=O)=O)[C@@H](O)[C@@H]1F [Compound I-97, [(2R,3R,4S,5R)-5-(4-amino-3-{[(3,3-difluorocyclobutyl)methyl]sulfanyl}-1H-pyrazolo[3,4-d]pyrimidin-1-yl)-4-fluoro-3-hydroxytetrahydrofuran-2-yl]methyl sulfamate] | 20 to 50 |  | 66
11 | Nc1ncnc2c1c(SC(F)F)nn2[C@@H]1O[C@H](COS(N)(=O)=O)[C@@H](O)[C@@H]1F [Compound I-98, [(2R,3R,4S,5R)-5-{4-amino-3-[(difluoromethyl)sulfanyl]-1H-pyrazolo[3,4-d]pyrimidin-1-yl}-4-fluoro-3-hydroxytetrahydrofuran-2-yl]methyl sulfamate] | 20 to 50 |  | 77
12 | Nc1ncnc2c1c(OC(F)F)nn2[C@@H]1O[C@H](COS(N)(=O)=O)[C@@H](O)[C@@H]1F [Compound I-99, {(2R,3R,4S,5R)-5-[4-amino-3-(difluoromethoxy)-1H-pyrazolo[3,4-d]pyrimidin-1-yl]-4-fluoro-3-hydroxytetrahydrofuran-2-yl}methyl Sulfamate] | 20 to 50 |  | 70
13 | Cc1occc1Sc1nn([C@@H]2O[C@H](COS(N)(=O)=O)[C@@H](O)[C@@H]2F)c2ncnc(N)c12 [Compound I-100, [(2R,3R,4S,5R)-5-{4-amino-3-[(2-methyl-3-furyl)sulfanyl]-1H-pyrazolo[3,4-d]pyrimidin-1-yl}-4-fluoro-3-hydroxytetrahydrofuran-2-yl]methyl sulfamate] | 100 to 500 |  | 50
14 | Cc1cccc(Sc2nn([C@@H]3O[C@H](COS(N)(=O)=O)[C@@H](O)[C@@H]3F)c3ncnc(N)c23)n1 [Compound I-102, [(2R,3R,4S,5R)-5-{4-amino-3-[(6-methylpyridin-2-yl)sulfanyl]-1H-pyrazolo[3,4-d]pyrimidin-1-yl}-4-fluoro-3-hydroxytetrahydrofuran-2-yl]methyl sulfamate] | 50 to 100 |  | 68
15 | Nc1ncnc2c1c(SC1CCCC1)nn2[C@@H]1O[C@H](COS(N)(=O)=O)[C@@H](O)[C@@H]1F [Compound I-103, {(2R,3R,4S,5R)-5-[4-amino-3-(cyclopentylsulfanyl)-1H-pyrazolo[3,4-d]pyrimidin-1-yl]-4-fluoro-3-hydroxytetrahydrofuran-2-yl}methyl sulfamate] | < 20 |  | 84
16 | CCN(CC)CCSc1nn([C@@H]2O[C@H](COS(N)(=O)=O)[C@@H](O)[C@@H]2F)c2ncnc(N)c12 [Compound I-104, [(2R,3R,4S,5R)-5-(4-amino-3-{[2-(diethylamino)ethyl]sulfanyl}-1H-pyrazolo[3,4-d]pyrimidin-1-yl)-4-fluoro-3-hydroxytetrahydrofuran-2-yl]methyl sulfamate] | 100 to 500 |  | 38
17 | COc1nn([C@@H]2O[C@H](COS(N)(=O)=O)[C@@H](O)[C@@H]2F)c2ncnc(N)c12 [Compound I-105, [(2R,3R,4S,5R)-5-(4-amino-3-methoxy-1H-pyrazolo[3,4-d]pyrimidin-1-yl)-4-fluoro-3-hydroxytetrahydrofuran-2-yl]methyl Sulfamate] | 100 to 500 | 42 | 
18 | Nc1ncnc2c1c(Sc1cccc(Cl)c1)nn2[C@@H]1O[C@H](COS(N)(=O)=O)[C@@H](O)[C@@H]1F [Compound I-106, [(2R,3R,4S,5R)-5-{4-amino-3-[(3-chlorophenyl)sulfanyl]-1H-pyrazolo[3,4-d]pyrimidin-1-yl}-4-fluoro-3-hydroxytetrahydrofuran-2-yl]methyl Sulfamate] | 20 to 50 | 78 | 
19 | COc1cccc(Sc2nn([C@@H]3O[C@H](COS(N)(=O)=O)[C@@H](O)[C@@H]3F)c3ncnc(N)c23)n1 [Compound I-107, [(2R,3R,4S,5R)-5-{4-amino-3-[(6-methoxypyridin-2-yl)sulfanyl]-1H-pyrazolo[3,4-d]pyrimidin-1-yl}-4-fluoro-3-hydroxytetrahydrofuran-2-yl]methyl sulfamate] | 50 to 100 |  | 61
20 | Nc1ncnc2c1c(C1CC1)nn2[C@@H]1O[C@H](COS(N)(=O)=O)[C@@H](O)[C@@H]1F [Compound I-108, [(2R,3R,4S,5R)-5-(4-amino-3-cyclopropyl-1H-pyrazolo[3,4-d]pyrimidin-1-yl)-4-fluoro-3-hydroxytetrahydrofuran-2-yl]methyl sulfamate] | > 500 |  | 19
21 | Nc1ncnc2c1c(Sc1ccccc1F)nn2[C@@H]1O[C@H](COS(N)(=O)=O)[C@@H](O)[C@@H]1F [Compound I-109, [(2R,3R,4S,5R)-5-{4-amino-3-[(2-fluorophenyl)sulfanyl]-1H-pyrazolo[3,4-d]pyrimidin-1-yl}-4-fluoro-3-hydroxytetrahydrofuran-2-yl]methyl sulfamate] | 20 to 50 |  | 82
22 | Cc1cc(Sc2nn([C@@H]3O[C@H](COS(N)(=O)=O)[C@@H](O)[C@@H]3F)c3ncnc(N)c23)c(C)o1 [Compound I-110, [(2R,3R,4S,5R)-5-{4-amino-3-[(2,5-dimethyl-3-furyl)sulfanyl]-1H-pyrazolo[3,4-d]pyrimidin-1-yl}-4-fluoro-3-hydroxytetrahydrofuran-2-yl]methyl sulfamate] | 50 to 100 |  | 56
23 | Nc1ncnc2c1c(Sc1ccc([N+](=O)[O-])cn1)nn2[C@@H]1O[C@H](COS(N)(=O)=O)[C@@H](O)[C@@H]1F [Compound I-111, [(2R,3R,4S,5R)-5-{4-amino-3-[(5-nitropyridin-2-yl)sulfanyl]-1H-pyrazolo[3,4-d]pyrimidin-1-yl}-4-fluoro-3-hydroxytetrahydrofuran-2-yl]methyl sulfamate] | 20 to 50 |  | 73
24 | Cn1ccnc1CSc1nn([C@@H]2O[C@H](COS(N)(=O)=O)[C@@H](O)[C@@H]2F)c2ncnc(N)c12 [Compound I-112, [(2R,3R,4S,5R)-5-(4-amino-3-{[(1-methyl-1H-imidazol-2-yl)methyl]sulfanyl}-1H-pyrazolo[3,4-d]pyrimidin-1-yl)-4-fluoro-3-hydroxytetrahydrofuran-2-yl]methyl sulfamate] | 100 to 500 |  | 44
25 | Nc1ncnc2c1c(Sc1ccccn1)nn2[C@@H]1O[C@H](COS(N)(=O)=O)[C@@H](O)[C@@H]1F [Compound I-113, {(2R,3R,4S,5R)-5-[4-amino-3-(pyridin-2-ylsulfanyl)-1H-pyrazolo[3,4-d]pyrimidin-1-yl]-4-fluoro-3-hydroxytetrahydrofuran-2-yl}methyl sulfamate] | < 20 |  | 89
